What was measured:
[1] = tested on: TDO2; experiment: Pharmacodynamic assay for TDO2 in vivo activity: increase of blood Tryptophan levels in mice; set-up: species or system mouse; settings: female BALB/c mice, 2 hours; for increase of circulating Tryptophan compared to vehicle-treated controls: p<0.0001
Experimental: The compounds of the present invention increase the amount of Tryptophan in mouse blood. Briefly, female BALB/c mice (7-8 weeks old) were treated with either a suspension of one of the compounds of the present invention in 0.5% hydroxypropyl methyl cellulose (HPMC) K4M (4000 mPa·s (cPs), Methocell™, Dow chemical)/0.25% Tween® 20 (Signma Aldrich) at different doses (30, 60 and 100 mg/kg), or with a vehicle control (0.5% HPMC K4M/0.25% Tween 20), by the oral route by gavage (dosing volume 5 mL/kg, 10 mice per group). After two hours, blood was harvested, plasma was prepared and the amount of Tryptophan present was determined by LC-MS-MS (HPLC column Unison UK-Phenyl, 75×4.6, 3 μm, flow rate 0.8 mL/min, 8 minutes gradient from 95% water+0.1% formic acid/5% Acetonitrile+0.1% formic acid to 5% water+0.1% formic acid/95% Acetonitrile+0.1% formic acid, retention time 2.4 min; API4000 MS-MS system from AB Sciex, ESI+ mode, parent ion 205.1, daughter ion 146.1).

[2] = biological target: T1, human glioblastoma A172 cells, naturally expressing hTDO2 (Homo sapiens, UniProt P48775); experiment: Cellular assay for TDO2 activity, A172 cells; assay type: cell-based; settings: overnight incubation, kynurenine in supernatant
T1 construct: human glioblastoma A172 cells, naturally expressing hTDO2; endogenous in cells; host or cells: human glioblastoma A172 cells (ATCC CRL-1620)
Outline: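 A172 human glioblastoma cells naturally expressing TDO2, seeded at 1.25×10^4 cells/well, were incubated overnight at 37 °C in IMDM with 2% FBS and ten serial compound concentrations. Supernatant kynurenine, after TCA precipitation and Ehrlich's reagent, was read at 480 nm against a kynurenine standard curve; data curve-fitted.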

[3] = biological target: T2, human recombinant TDO2 enzyme (Homo sapiens, UniProt P48775); experiment: Assay for TDO2 enzymatic activity determination; assay type: biochemical; settings: human recombinant TDO2, L-Trp 1 mM, kynurenine absorbance at 480 nm
T2 construct: made in house
Outline: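 Recombinant human TDO2 assayed in 50 mM potassium phosphate pH 7.5 with ascorbate, methylene blue and catalase. Reaction started with 1 mM L-Trp, run 1 h at room temperature, stopped with TCA, then heated at 65 °C. Kynurenine measured with Ehrlich's reagent at 480 nm against a standard curve; ten-point concentration series fitted.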

T1 sequence (P48775 whole entry): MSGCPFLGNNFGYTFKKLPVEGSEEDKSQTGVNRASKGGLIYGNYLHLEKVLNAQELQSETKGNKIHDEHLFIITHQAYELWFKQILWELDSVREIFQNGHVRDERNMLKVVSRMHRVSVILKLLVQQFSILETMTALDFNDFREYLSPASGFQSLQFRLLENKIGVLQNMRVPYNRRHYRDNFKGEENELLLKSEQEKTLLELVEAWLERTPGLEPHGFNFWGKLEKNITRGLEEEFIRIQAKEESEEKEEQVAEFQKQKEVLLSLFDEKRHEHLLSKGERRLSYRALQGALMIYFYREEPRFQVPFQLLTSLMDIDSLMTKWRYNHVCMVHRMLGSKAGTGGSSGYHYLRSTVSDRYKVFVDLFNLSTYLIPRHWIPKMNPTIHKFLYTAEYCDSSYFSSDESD
T2 sequence (P48775 whole entry): as above

IC50 [2]: 239 nM | IC50 [3]: 1630 nM
SMILES: Fc1ccc2c(-c3ccc4nc(CCN5CCNCC5)oc4c3)c[nH]c2c1 [Compound 110, 6-(6-fluoro-1H-indol-3-yl)-2-(2-(piperazin-1-yl)ethyl)benzo[d]oxazole]
Tryptophan concentration in plasma (average ± standard error of the mean) ([1]; 30 mg/kg oral gavage): 125 ± 7 µM | increase of circulating Tryptophan compared to vehicle-treated controls ([1]; 30 mg/kg oral gavage): 46% | Tryptophan concentration in plasma (average ± standard error of the mean) ([1]; 60 mg/kg oral gavage): 130.3 µM | increase of circulating Tryptophan compared to vehicle-treated controls ([1]; 60 mg/kg oral gavage): 52% | Tryptophan concentration in plasma (average ± standard error of the mean) ([1]; 100 mg/kg oral gavage): 153.2 µM | increase of circulating Tryptophan compared to vehicle-treated controls ([1]; 100 mg/kg oral gavage): 78%

Source: patent US20150266857A1, “NOVEL 3-INDOL SUBSTITUTED DERIVATIVES, PHARMACEUTICAL COMPOSITIONS AND METHODS FOR USE” (iTeos Therapeutics, priority 2014, published 2015)
